Laboratory results: the supplement of paper PMC10307832

Compound: CC(C)=CC[C@@H](O)C1=CC(=O)c2c(O)ccc(O)c2C1=O [Shikonin] + Cc1nc(Nc2ncc(C(=O)Nc3c(C)cccc3Cl)s2)cc(N2CCN(CCO)CC2)n1 [Dasatinib] (partner 0.075 µM)
Assay: relative viability (nuclei count vs DMSO), 5 days (fraction); higher = more cells survive
Conditions: first compound 0.01 µM
Outline: (§1)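 Relative viability is defined as nuclei in treated wells over nuclei in vehicle wells. Duplicate plates were run and medians reported. Lung cancer cell lines in 1536-well plates were dosed by pin tool one day after seeding, with one drug or with a fixed anchor-drug dose plus five library-drug doses (not always all listed) in √10 steps, and nuclei were counted after 5 days.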

| Cell Line | relative viability |
| --- | --- |
| NCI-H2228 | 0.539 |
| EMC-BAC-2 | 0.301 |
| NCI-H2087 | 0.868 |
| HCC-366 | 0.629 |
| NCI-H1666 | 0.809 |
| NCI-H650 | 0.462 |
| LK-2 | 0.273 |
| NCI-H2126 | 0.599 |
| SK-MES-1 | 0.26 |
| H3255 | 0.285 |
| COR-L23 | 0.482 |
| COR-L 105 | 0.329 |
| LOU-NH91 | 0.551 |
| ChaGo-K-1 | 0.501 |
| NCI-H2170 | 0.611 |
| NCI-H3122 | 0.882 |
| HOP-62 | 0.66 |
| NCI-H522 | 0.901 |
| LU99A | 0.52 |
| BEN | 0.302 |
| HARA | 0.239 |
| SW 900 | 0.5 |
| HCC-78 | 0.39 |
| NCI-H441 | 0.632 |
| LCLC-97TM1 | 0.877 |
| NCI-H2023 | 0.674 |
| NCI-H1792 | 0.91 |
| NCI-H1563 | 0.379 |

Same assay, conditions: first compound 0.1 µM

| Cell Line | relative viability |
| --- | --- |
| NCI-H2342 | 0.314 |
| NCI-H1623 | 0.541 |
| PC-14 | 0.258 |
| NCI-H1650 | 0.336 |
| NCI-H2009 | 0.301 |
| NCI-H1993 | 0.489 |
| NCI-H520 | 0.218 |
| PC-3 [JPC-3] | 0.968 |
| LCLC-103H | 0.462 |
| NCI-H647 | 0.156 |
| NCI-H2228 | 0.534 |
| EMC-BAC-2 | 0.322 |
| NCI-H2087 | 1.1 |
| HCC-366 | 1.12 |
| NCI-H1666 | 0.873 |
| NCI-H650 | 0.449 |
| LK-2 | 0.258 |
| NCI-H2126 | 0.595 |
| SK-MES-1 | 0.453 |

| Cell Line | relative viability |
| --- | --- |
| H3255 | 0.331 |
| COR-L23 | 0.49 |
| COR-L 105 | 0.329 |
| LOU-NH91 | 0.551 |
| ChaGo-K-1 | 0.616 |
| NCI-H2170 | 0.465 |
| NCI-H3122 | 0.761 |
| HOP-62 | 0.593 |
| NCI-H522 | 0.852 |
| LU99A | 0.756 |
| BEN | 0.407 |
| HARA | 0.281 |
| SW 900 | 0.592 |
| HCC-78 | 0.464 |
| NCI-H441 | 0.466 |
| LCLC-97TM1 | 0.848 |
| NCI-H2023 | 0.646 |
| NCI-H1792 | 0.6 |
| NCI-H1563 | 0.435 |

Same assay, conditions: first compound 0.3162 µM

| Cell Line | relative viability |
| --- | --- |
| NCI-H2342 | 0.295 |
| NCI-H1623 | 0.569 |
| PC-14 | 0.263 |
| NCI-H1650 | 0.267 |
| NCI-H2009 | 0.239 |
| NCI-H1993 | 0.645 |
| NCI-H520 | 0.2 |
| PC-3 [JPC-3] | 1.1 |
| LCLC-103H | 0.549 |
| NCI-H647 | 0.145 |
| NCI-H2228 | 0.46 |
| EMC-BAC-2 | 0.375 |
| NCI-H2087 | 0.83 |
| HCC-366 | 0.673 |
| NCI-H1666 | 0.882 |
| NCI-H650 | 0.414 |
| LK-2 | 0.228 |
| NCI-H2126 | 0.656 |
| SK-MES-1 | 0.323 |

| Cell Line | relative viability |
| --- | --- |
| H3255 | 0.325 |
| COR-L23 | 0.532 |
| COR-L 105 | 0.307 |
| LOU-NH91 | 0.639 |
| ChaGo-K-1 | 0.56 |
| NCI-H2170 | 0.651 |
| NCI-H3122 | 0.969 |
| HOP-62 | 0.701 |
| NCI-H522 | 1.04 |
| LU99A | 0.594 |
| BEN | 0.303 |
| HARA | 0.299 |
| SW 900 | 0.545 |
| HCC-78 | 0.363 |
| NCI-H441 | 0.631 |
| LCLC-97TM1 | 1.09 |
| NCI-H2023 | 0.626 |
| NCI-H1792 | 0.934 |
| NCI-H1563 | 0.467 |

Same assay, conditions: first compound 1 µM

| Cell Line | relative viability |
| --- | --- |
| NCI-H2342 | 0.325 |
| NCI-H1623 | 0.635 |
| PC-14 | 0.24 |
| NCI-H1650 | 0.21 |
| NCI-H2009 | 0.134 |
| NCI-H1993 | 0.361 |
| NCI-H520 | 0.189 |
| PC-3 [JPC-3] | 0.958 |
| LCLC-103H | 0.586 |
| NCI-H647 | 0.171 |
| NCI-H2228 | 0.522 |
| EMC-BAC-2 | 0.298 |
| NCI-H2087 | 0.893 |
| HCC-366 | 0.706 |
| NCI-H1666 | 0.857 |
| NCI-H650 | 0.464 |
| LK-2 | 0.267 |
| NCI-H2126 | 0.685 |
| SK-MES-1 | 0.375 |

| Cell Line | relative viability |
| --- | --- |
| H3255 | 0.348 |
| COR-L23 | 0.462 |
| COR-L 105 | 0.335 |
| LOU-NH91 | 0.584 |
| ChaGo-K-1 | 0.67 |
| NCI-H2170 | 0.54 |
| NCI-H3122 | 0.861 |
| HOP-62 | 0.747 |
| NCI-H522 | 1.16 |
| LU99A | 0.663 |
| BEN | 0.386 |
| HARA | 0.28 |
| SW 900 | 0.634 |
| HCC-78 | 0.417 |
| NCI-H441 | 0.675 |
| LCLC-97TM1 | 0.815 |
| NCI-H2023 | 0.611 |
| NCI-H1792 | 1.01 |
| NCI-H1563 | 0.458 |

Compound: CC(C)=CC[C@@H](O)C1=CC(=O)c2c(O)ccc(O)c2C1=O [Shikonin] + O=C(CCCCCCC(=O)Nc1ccccc1)NO [Vorinostat] (partner 1 µM)
Assay: as above
Conditions: first compound 0.01 µM
Outline: as §1

| Cell Line | relative viability |
| --- | --- |
| NCI-H2342 | 0.872 |
| PC-14 | 0.807 |
| NCI-H1650 | 0.41 |
| NCI-H2009 | 0.918 |
| NCI-H1993 | 0.72 |
| NCI-H520 | 0.8 |
| PC-3 [JPC-3] | 0.845 |
| LCLC-103H | 0.791 |
| NCI-H647 | 0.54 |
| NCI-H2228 | 0.807 |
| EMC-BAC-2 | 0.431 |
| NCI-H2087 | 0.624 |
| HCC-366 | 0.367 |
| NCI-H1666 | 1.07 |
| NCI-H650 | 0.425 |
| LK-2 | 0.279 |
| NCI-H2126 | 0.806 |
